Test results: paper PMC6572184, “New γ-Halo-δ-lactones and δ-Hydroxy-γ-lactones with Strong Cytotoxic Activity” (Molecules, 2019)
Read-outs that look alike come from different tables or passages of the source.

Experiments:
[1] = test system: Escherichia coli ATCC 8739; experiment: Bactericidal activity, CFU counting method; assay type: cell-based; conditions: E. coli ATCC 8739; 18 h at 37 °C; Control 9.47, Control with DMSO 9.30
Experimental: (§1) The bacterial cultures: Escherichia coli ATCC 8739 and Staphylococcus aureus ATCC 65389 were grown on Luria–Bertani Agar for 18 h at 37 ^∘ C. The strain suspension was prepared in 0.85% saline, with an optical density equivalent to a 0.5 McFarland standard. Next, the following mixtures were prepared: 180 μ L of sterile enriched broth (BTL), 10 μ L of the bacterial suspension and 10 μ L of the tested compound (range 0.1–50 μ g/mL) solubilized in DMSO. As a negative control, only DMSO was added. As a sterility control, 180 μ L of BTL and 20 μ L saline were used. The microtiter plate was incubated at 37 ^∘ C for 18 h. The colony forming unit (CFU) method was used to evaluate the microbial population. The experiment was repeated three times. Gentamicin was used as the reference antibiotic.

[2] = test system: Staphylococcus aureus ATCC 65389; experiment: Bactericidal activity, CFU counting method; assay type: cell-based; conditions: S. aureus ATCC 65389; for Number of CFU/mL (× 10^7): 18 h at 37 °C, Control 21.36, Control with DMSO 20.85; for less CFU/mL (reduction of the number of CFU/mL): versus control
Experimental: as §1

[3] = MTT reduction cytotoxicity assay; assay type: cell-based, human; conditions: human, AGS cells (human gastric adenocarcinoma), 24 h, read-out: mean percentage of viable cells ± SD
Experimental: (§2) Cell cultures: The L929 mouse fibroblasts and human gastric adenocarcinoma cell line AGS were used for in vitro cytotoxicity assays. The cells were maintained under standard conditions (37 ^∘ C, 5% CO 2 ) in 25 cm^2 tissue culture flasks in RPMI-1640 medium supplemented with 10% fetal bovine serum (FBS) and antibiotics: 100 U/mL penicillin and 100 μ g/mL streptomycin. The cell suspension containing 10 ^8 cells in 1 mL, was obtained by treatment of confluent monolayers with 0.25% trypsin solution, washed and subcultured. Cell cultures were supplemented with medium to maintain them in log phase growth. The viability of the cells was assessed by exclusion of trypan blue dye.
(§3) Measurements of cellular metabolic activity and global growth inhibition: L929 cells were seeded into 96-well plates (2 × 10 ^5 cells/well) for 24 h, at 37 ^∘ C, 5% CO2 . Tested compounds 5a–c, 6a–c, 7a–c, 8a–c, 9b,c, 10b,c, 12a and 13a were diluted serially in RPMI-1640 medium in concentrations of 50, 20, 10, 5, 0.5 and 0.1 μ g/mL, added to the cells (100 μ L/well), and incubated under standard conditions for 24 h. The potential harmful effect of lactones on L929 and AGS cells was assessed by the ability of the cells to reduce 3-(4,5-dimethylthiazol-2-yl)-2,5-diphenyltetrazolium bromide (MTT) to formazan. The solution of MTT (5 mg/mL in PBS), was added to each well and the plates were incubated for 4h at 37 ^∘ C. Formazan crystals were dissolved with acidic isopropanol (0.1 M HCl in absolute isopropanol) and the plates were read in a plate reader (Victor 2) at 570 nm. The percentage of MTT reduction was calculated by comparing the absorbance of treated cells to that of untreated control cells. Results are expressed as the mean percentage of viable cells ± standard deviation (SD) of four independent experiments. Statistical significance was accepted at a p-value < 0.05.

[4] = test system: AGS cell lines (human gastric adenocarcinoma); experiment: MTT reduction cytotoxicity assay; assay type: cell-based; conditions: Homo sapiens
Experimental: as §2, §3

[5] = MTT reduction cytotoxicity assay; assay type: cell-based, mouse; conditions: mouse, L929 cells (mouse fibroblasts), read-out: mean percentage of viable cells ± SD
Experimental: as §2, §3

[6] = test system: L929 cell lines (mouse fibroblasts); experiment: MTT reduction cytotoxicity assay; assay type: cell-based; conditions: 24 h
Experimental: as §2, §3

| SMILES | melting point | Number of CFU/mL (× 10^7) [1] | bactericidal activity (in words) [2] | Number of CFU/mL (× 10^7) [2] | viability at 24 h, 0.1 μg/mL [3] | viability at 24 h, 0.5 μg/mL [3] | viability at 24 h, 5 μg/mL [3] | viability at 24 h, 10 μg/mL [3] | viability at 24 h, 20 μg/mL [3] | viability at 24 h, 50 μg/mL [3] | IC50 [4] | viability at 24 h, 0.1 μg/mL [5] | viability at 24 h, 0.5 μg/mL [5] | viability at 24 h, 5 μg/mL [5] | viability at 24 h, 10 μg/mL [5] | viability at 24 h, 20 μg/mL [5] | viability at 24 h, 50 μg/mL [5] | less CFU/mL (reduction of the number of CFU/mL) [2] | mean percentage of viable cells ± SD ([6]; 5 μg/mL) | mean percentage of viable cells ± SD ([6]; 10 μg/mL) |
| --- | --- | --- | --- | --- | --- | --- | --- | --- | --- | --- | --- | --- | --- | --- | --- | --- | --- | --- | --- | --- |
| C[C@@H]1CC(=O)O[C@H]1[C@@H](O)c1cccc2ccccc12 (mixture of isomers) [12a, Trans-dihydro-5-((S)-hydroxy(naphthalen-1-yl)methyl)-4-methylfuran-2(3H)-one] |  | 9.43 × 10^7 CFU/mL | did not show bactericidal activity | 21.15 × 10^7 CFU/mL | 39 ± 0.09% | 26 ± 0.05% | 22 ± 0.09% | 18 ± 0.05% | 13 ± 0.08% | 9 ± 0.1% | 4.3 µM | 19 ± 0.15% | 15 ± 0.05% | 10 ± 0.02% | 8 ± 0.06% | 3 ± 0.03% | 2 ± 0.06% |  |  |  |
| C[C@@H]1CC(=O)O[C@H](c2cccc3ccccc23)[C@H]1Cl (relative stereo) [5a, Trans,trans-5-chloro-tetrahydro-4-methyl-6-(naphthalen-1-yl)pyran-2-one] | 157 to 158 °C | 6.41 × 10^7 CFU/mL |  | 2.74 × 10^7 CFU/mL | 54 ± 0.07% | 48 ± 0.05% | 43 ± 0.09% | 27 ± 0.1% | 18 ± 0.08% | 15 ± 0.01% | 1.9 µM | 17 ± 0.09% | 15 ± 0.02% | 10 ± 0.03% | 8 ± 0.07% | 5 ± 0.06% | 1 ± 0.01% | 87% |  |  |
| C[C@@H]1CC(=O)O[C@@H]1C(I)c1ccccc1 (relative stereo) [11b, Cis-dihydro-5-(iodo(phenyl)methyl)-4-methylfuran-2(3H)-one] | 86 to 87 °C |  |  |  |  |  |  |  |  |  |  |  |  |  |  |  |  |  |  |  |
| CC1CC(=O)OC(c2ccccc2)C1Cl (stereo not drawn) [5b, Trans,trans-5-chloro-tetrahydro-4-methyl-6-phenylpyran-2-one] | 105 to 106.5 °C | 4.06 × 10^7 CFU/mL |  | 7.63 × 10^7 CFU/mL | 35 ± 0.06% | 20 ± 0.09% | 16 ± 0.06% | 14 ± 0.12% | 11 ± 0.07% | 8 ± 0.09% | 2.3 µM | 20 ± 0.08% | 18 ± 0.15% |  |  | 4 ± 0.02% | 1 ± 0.03% |  | 12 ± 0.05% | 7 ± 0.06% |
| CC1CC(=O)OC(c2cccc3ccccc23)C1Br (stereo not drawn) [7a, Trans,trans-5-bromo-tetrahydro-4-methyl-6-(naphthalen-1-yl)pyran-2-one] | 197 to 198 °C | 5.21 × 10^7 CFU/mL |  | 4.63 × 10^7 CFU/mL | 39 ± 0.02% | 26 ± 0.05% | 25 ± 0.1% | 21 ± 0.03% | 20 ± 0.06% | 8 ± 0.03% | 2.1 µM | 25 ± 0.02% | 18 ± 0.12% | 12 ± 0.02% | 6 ± 0.07% | 2 ± 0.03% | 1 ± 0.12% | 78–83% |  |  |
| CC1CC(=O)OC(c2ccccc2)C1Br (stereo not drawn) [7b, Trans,trans-5-bromo-tetrahydro-4-methyl-6-phenylpyran-2-one] | 111 to 112 °C | 8.63 × 10^7 CFU/mL |  | 10.96 × 10^7 CFU/mL | 40 ± 0.1% | 25 ± 0.1% | 23 ± 0.02% | 20 ± 0.06% | 14 ± 0.03% | 10 ± 0.06% | 3.6 µM | 25 ± 0.03% | 18 ± 0.08% | 13 ± 0.12% | 10 ± 0.05% | 5 ± 0.15% | 2 ± 0.09% |  |  |  |

Second part, led by results:

| melting point | SMILES | Number of CFU/mL (× 10^7) [1] | bactericidal activity (in words) [2] | Number of CFU/mL (× 10^7) [2] | viability at 24 h, 0.1 μg/mL [3] | viability at 24 h, 0.5 μg/mL [3] | viability at 24 h, 5 μg/mL [3] | viability at 24 h, 10 μg/mL [3] | viability at 24 h, 20 μg/mL [3] | viability at 24 h, 50 μg/mL [3] | IC50 [4] | viability at 24 h, 0.1 μg/mL [5] | viability at 24 h, 0.5 μg/mL [5] | viability at 24 h, 5 μg/mL [5] | viability at 24 h, 10 μg/mL [5] | viability at 24 h, 20 μg/mL [5] | viability at 24 h, 50 μg/mL [5] | less CFU/mL (reduction of the number of CFU/mL) [2] | mean percentage of viable cells ± SD ([6]; 5 μg/mL) | mean percentage of viable cells ± SD ([6]; 10 μg/mL) |
| --- | --- | --- | --- | --- | --- | --- | --- | --- | --- | --- | --- | --- | --- | --- | --- | --- | --- | --- | --- | --- |
| 118 to 119 °C | C[C@@H]1CC(=O)O[C@@H]1C(I)c1ccc(F)cc1 (relative stereo) [11c, Cis-5-((4-fluorophenyl)iodomethyl)-dihydro-4-methylfuran-2(3H)-one] |  |  |  |  |  |  |  |  |  |  |  |  |  |  |  |  |  |  |  |
| 86 to 87 °C | C[C@@H]1CC(=O)O[C@H]1C(O)c1ccccc1 (relative stereo) [12b, Trans-dihydro-5-(hydroxy(phenyl)methyl)-4-methylfuran-2(3H)-one] |  |  |  |  |  |  |  |  |  |  |  |  |  |  |  |  |  |  |  |
| 118 to 119 °C | C[C@@H]1CC(=O)O[C@H]1C(O)c1ccc(F)cc1 (relative stereo) [12c, Trans-5-((4-fluorophenyl)(hydroxy)methyl)-dihydro-4-methylfuran-2(3H)-one] |  |  |  |  |  |  |  |  |  |  |  |  |  |  |  |  |  |  |  |
| 89 to 91 °C | C[C@@H]1CC(=O)O[C@@H]1C(O)c1ccccc1 (relative stereo) [13b, Cis-dihydro-5-(hydroxy(phenyl)methyl)-4-methylfuran-2(3H)-one] |  |  |  |  |  |  |  |  |  |  |  |  |  |  |  |  |  |  |  |
| 118 to 119 °C | C[C@@H]1CC(=O)O[C@@H]1C(O)c1ccc(F)cc1 (relative stereo) [13c, Cis-5-((4-fluorophenyl)(hydroxy)methyl)-dihydro-4-methylfuran-2(3H)-one] |  |  |  |  |  |  |  |  |  |  |  |  |  |  |  |  |  |  |  |
| 123 to 124 °C | C[C@@H]1CC(=O)O[C@@H]1[C@@H](O)c1cccc2ccccc12 [13a, Cis-dihydro-5-((S)-hydroxy(naphthalen-1-yl)methyl)-4-methylfuran-2(3H)-one] | 6.02 × 10^7 CFU/mL |  | 9.12 × 10^7 CFU/mL | 44 ± 0.12% | 39 ± 0.09% | 29 ± 0.05% | 18 ± 0.12% | 10 ± 0.1% | 8 ± 0.08% | 3.7 µM | 16 ± 0.09% | 12 ± 0.02% | 9 ± 0.03% | 6 ± 0.06% | 5 ± 0.12% | 1 ± 0.07% |  |  |  |
